Reference: ChEMBL document CHEMBL1201862, “PubChem BioAssay data set” (2004)
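1) Cells in 96-well plates. 2) Compound, 48 h, 5 concentrations. 3) Linear interpolation between surrounding doses. 4) Unreached endpoint = highest concentration. GI50 = concentration required for 50% inhibition of growth.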 The source made the active and inactive calls. No stated cut-off is given here; in the data, active = GI50 up to about 1.1 µM and inactive = higher.

How the values were obtained:
Test in all cases: NCI tumour cell line growth inhibition, 48 h
K562 = test system: K562
MOLT-4 = test system: MOLT-4
SR = test system: SR
SK-MEL-2 = test system: SK-MEL-2
RPMI-8226 = test system: RPMI-8226
UACC-257 = test system: UACC-257
IGROV-1 = test system: IGROV-1
SF-539 = test system: SF-539
ACHN = test system: ACHN
SF-268 = test system: SF-268
HL-60 = test system: HL-60
MCF7 = test system: MCF7
HT-29 = test system: HT-29
SK-OV-3 = test system: SK-OV-3
SK-MEL-5 = test system: SK-MEL-5
NCI-H460 = test system: NCI-H460
KM12 = test system: KM12
Malme-3M = test system: Malme-3M
HCC 2998 = test system: HCC 2998
MDA-MB-435 = test system: MDA-MB-435

| Structure (SMILES) | GI50 (K562) | GI50 (MOLT-4) | GI50 (SR) | GI50 (SK-MEL-2) | GI50 (RPMI-8226) | GI50 (UACC-257) | GI50 (IGROV-1) | GI50 (SF-539) | GI50 (ACHN) | GI50 (SF-268) | GI50 (HL-60) | GI50 (MCF7) | GI50 (HT-29) | GI50 (SK-OV-3) | GI50 (SK-MEL-5) | GI50 (NCI-H460) | GI50 (KM12) | GI50 (Malme-3M) | GI50 (HCC 2998) | GI50 (MDA-MB-435) |
| --- | --- | --- | --- | --- | --- | --- | --- | --- | --- | --- | --- | --- | --- | --- | --- | --- | --- | --- | --- | --- |
| N#Cc1c(Cl)cccc1Oc1ccc(S(=O)(=O)/N=C(\NN)Nc2ccc(Cl)cc2)cc1 | 34.8 µM (inactive) | 14.6 µM (inactive) | 0.0177 µM (active) | 21.6 µM (inactive) | 32.5 µM (inactive) | 29.9 µM (inactive) | 20.1 µM (inactive) | 17.7 µM (inactive) | 31.9 µM (inactive) | 22.8 µM (inactive) | 21.5 µM (inactive) | 35.7 µM (inactive) | 30.3 µM (inactive) | 32.3 µM (inactive) | 17.1 µM (inactive) | 19.2 µM (inactive) | 19.5 µM (inactive) |  |  |  |
| CCOC(=O)c1c(N)sc2c1C(C)(C(=O)OCC)CC2 (centres undefined) | > 100 µM (inactive) | 74.5 µM (inactive) | 92.7 µM (inactive) | > 100 µM (inactive) | 78.5 µM (inactive) | > 100 µM (inactive) | > 100 µM (inactive) |  | > 100 µM (inactive) |  | 96.8 µM (inactive) | > 100 µM (inactive) | > 100 µM (inactive) |  | > 100 µM (inactive) | 69.5 µM (inactive) | > 100 µM (inactive) | > 100 µM (inactive) | > 100 µM (inactive) |  |
| Cc1cc2c(cc1Cl)SC(NNc1cnc3ccccc3n1)=NS2(=O)=O | 73.3 µM (inactive) | 26.6 µM (inactive) |  |  |  | 72.8 µM (inactive) | 41.8 µM (inactive) | 29.4 µM (inactive) | > 100 µM (inactive) | 32.3 µM (inactive) | > 100 µM (inactive) |  | > 100 µM (inactive) | 44.2 µM (inactive) | 66.7 µM (inactive) | 33.8 µM (inactive) | 74.3 µM (inactive) | 22.6 µM (inactive) | 67.9 µM (inactive) | > 100 µM (inactive) |
| CN(C)CCNc1ccc(NCC[N+](C)(C)Cc2ccc([N+](=O)[O-])cc2)c2c1C(=O)c1c(O)ccc(O)c1C2=O | 6.08 µM (inactive) | 0.509 µM (active) |  | > 100 µM (inactive) | 7.57 µM (inactive) |  | 40.3 µM (inactive) |  |  | 19.8 µM (inactive) | 54.2 µM (inactive) |  | 25.8 µM (inactive) |  | 10.8 µM (inactive) |  | 26.1 µM (inactive) |  | > 10 µM (inactive) | 35.2 µM (inactive) |
| N#Cc1nc(-c2ccccc2O)oc1N | 29.9 µM (inactive) | 60.4 µM (inactive) |  | > 100 µM (inactive) | 20.4 µM (inactive) | > 100 µM (inactive) | 40 µM (inactive) |  | > 100 µM (inactive) | 64.3 µM (inactive) | > 100 µM (inactive) | 37.1 µM (inactive) | > 100 µM (inactive) | > 100 µM (inactive) | 61.4 µM (inactive) |  | 42 µM (inactive) |  |  | 99.8 µM (inactive) |
| O=C(O)c1cccc(Nc2c(C(=O)O)cccc2[N+](=O)[O-])c1 | > 100 µM (inactive) | > 100 µM (inactive) | > 100 µM (inactive) | > 100 µM (inactive) | > 100 µM (inactive) | > 100 µM (inactive) | > 100 µM (inactive) | > 100 µM (inactive) | > 100 µM (inactive) |  | > 100 µM (inactive) | > 100 µM (inactive) | > 100 µM (inactive) | > 100 µM (inactive) | > 100 µM (inactive) | > 100 µM (inactive) | 57.4 µM (inactive) | 38.5 µM (inactive) | > 100 µM (inactive) |  |
